Columns and labels:
[1] = test system: v1 expressing 3T3 cells (tumor); assay: Antitumor effect on v1 expressing 3T3 cells inoculated in nude mice (Test Example 13); assay type: in vivo; conditions: BALB/c nude mice
Method: 3×10^6 cells of v1 expressing 3T3 cells suspended in PBS were inoculated subcutaneously by injection to the back of 5 weeks old male BALB/c nude mice (Charles River Japan, Inc.). […] Administrations were performed once a day for 14 days, and body weight and tumor size were measured every other day. Tumor volume was calculated using the following formula.
[Tumor volume (mm^3)]=[Tumor major axis (mm)]×[tumor minor axis (mm)]^2×0.5
The antitumor effect of compound D was investigated by the similar procedure with the following exceptions. The administration of the compound was started after 6 days of the inoculation and carried out once a day for 10 days.

[2] = target: T1, EML4-ALK fusion protein v1 (Homo sapiens, UniProt Q9UM73, D1529E/I1461V/K1491R); assay: Inhibitory effect of compounds against the in vitro kinase activity of EML4-ALK fusion protein v1, single concentration (Test Example 12(3)); assay type: biochemical; conditions: final concentration 10 nM
T1 construct: FLAG (N); made in house
Source text: N-terminally FLAG-tagged EML4-ALK fusion protein v1 was inserted into a vector pMX-iresCD8 capable of co-expression of insert cDNA and cell surface antigen CD8 (J. Biol. Chem., 2001, vol. 276, p. 39012-39020) to create a vector FLAG-EML4-ALKv1/pMX-iresCD8 expressing both FLAG-EML4-ALKv1 and CD8. FLAG-EML4-ALKv1/pMX-iresCD8 was used to create a recombinant retrovirus in the same manner as described above and infected into mouse lymphoid cell line BA/F3 cells. Using a magnetic bead reagent for cell separation and a purification column (anti-CD8 monoclonal antibody immobilized on magnetic beads and a MiniMACS purification column; both are products of Miltenyi Biotec Inc.), cell surface CD8-expressing cells were purified conveniently. […] After washing 3 times with PBS, the cells were lysed in a lysis solution (50 mM Tris.HCl (pH 7.4), 150 mM NaCl, 1% Triton X100, 5 mM EDTA, 5 mM EGTA, 1 mM NaVO4, 1 mM DTT and protease inhibitor cocktail complete). The EML4-ALK fusion protein v1 present in the supernatant obtained after centrifugation was purified using ANTI-FLAG M2 Affinity Gel (SIGMA-ALDRICH Inc.) according to the method described in the product information document.
The EML4-ALK fusion protein v1 purified as above was investigated for its phosphorylation activity toward a peptide substrate using a kinase activity detection kit (HTRF KinEASE-TK; Cisbio Inc.). Using TK substrate 1, which was included in the kit, as the substrate, and after adding no ATP or 100 μM ATP, the mixtures were reacted at room temperature for 1 hour, and the count of HTRF was detected as recommended by the Kits manufacturer.

MER = target: T2, MER (Homo sapiens, UniProt Q12866); assay: Kinase inhibition profiling, MER (Test Example 6); assay type: biochemical; conditions: 100 nM; read-out: inhibitory activity against MER
T2 construct: purchased Carna Biosciences Inc., Japan (contract measurement)
T2 sequence (Q12866 21-999): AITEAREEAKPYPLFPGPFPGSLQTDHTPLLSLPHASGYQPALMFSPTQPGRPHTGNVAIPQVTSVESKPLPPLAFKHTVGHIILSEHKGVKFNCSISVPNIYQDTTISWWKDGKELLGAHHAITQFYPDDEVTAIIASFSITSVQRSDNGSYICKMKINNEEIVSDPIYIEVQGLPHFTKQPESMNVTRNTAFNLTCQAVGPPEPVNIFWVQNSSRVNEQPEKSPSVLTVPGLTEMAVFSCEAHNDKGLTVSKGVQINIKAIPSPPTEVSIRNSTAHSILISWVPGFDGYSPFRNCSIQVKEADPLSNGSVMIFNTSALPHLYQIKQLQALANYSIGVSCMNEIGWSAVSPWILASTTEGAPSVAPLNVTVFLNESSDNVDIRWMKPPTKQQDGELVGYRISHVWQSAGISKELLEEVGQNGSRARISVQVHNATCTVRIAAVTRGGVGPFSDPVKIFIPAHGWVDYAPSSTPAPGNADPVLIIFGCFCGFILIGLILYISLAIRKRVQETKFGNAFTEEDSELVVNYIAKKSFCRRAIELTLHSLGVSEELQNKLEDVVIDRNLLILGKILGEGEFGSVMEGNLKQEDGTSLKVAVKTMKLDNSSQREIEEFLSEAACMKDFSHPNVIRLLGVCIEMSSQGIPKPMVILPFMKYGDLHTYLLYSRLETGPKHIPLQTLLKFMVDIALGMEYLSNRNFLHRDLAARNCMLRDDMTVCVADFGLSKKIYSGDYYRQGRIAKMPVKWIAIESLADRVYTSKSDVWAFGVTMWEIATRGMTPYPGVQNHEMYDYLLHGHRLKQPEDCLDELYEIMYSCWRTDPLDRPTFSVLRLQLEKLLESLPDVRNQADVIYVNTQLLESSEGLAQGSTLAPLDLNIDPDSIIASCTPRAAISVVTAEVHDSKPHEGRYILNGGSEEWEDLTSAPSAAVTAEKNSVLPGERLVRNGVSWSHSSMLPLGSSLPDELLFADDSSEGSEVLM

[3] = Toxicity test in rats, 7-day repeated oral administration (Test Example 5); assay type: in vivo, SD rats; conditions: 7 days; for Dose: Bone marrow inhibition / Dose: Exacerbation of common symptoms / Non-toxic dose: oral; for Dose: Moribund condition: SD, rat, in vivo, po
Source text: Test compounds were each suspended in a 0.5% aqueous methylcellulose solution and repeatedly administered to SD rats (two females and four males in each group) by the oral route at each dose for 7 days.

[4] = test system: human non-small cell lung cancer cell line HCC827 cells (mutant EGFR protein-expressing cells); assay: Inhibitory effect against anchorage-independent cell growth of HCC827 cells (Test Example 4); assay type: cell-based; conditions: 120 h, spheroid plate, 5 days, CellTiter-Glo
Method: (§1) In a 96-well spheroid plate (Sumilon Celltight Spheroid 96U; Sumitomo Bakelite Co., Ltd., Japan), human non-small cell lung cancer cell line NCI-H2228 cells were seeded at 2000 cells per well in RPMI1640 medium (Invitrogen) containing 10% fetal bovine serum. NCI-H2228 cells are those expressing another EML4-ALK fusion protein, which is different from the EML4-ALK fusion protein v1 because it is encoded by an EML4-ALK fusion polynucleotide whose fusion point on EML4 cDNA is different from that of the EML4-ALK fusion polynucleotide v1, but whose ALK region is the same as that of the EML4-ALK fusion polynucleotide v1. The above NCI-H2228 cells seeded in the plate were cultured overnight under 5% CO2 at 37° C., followed by addition of a test compound (final concentration: 10 μM to 1 nM). As a negative control, DMSO used as a solvent was added at the same concentration as the test compound. Then, the cells were cultured under 5% CO2 at 37° C. for 5 days. A cell counting reagent (CellTiter-Glo™ Luminescent Cell Viability Assay; Promega) was added and agitated for 20 minutes, followed by measurement with a luminometer (ML3000 microtiter plate luminometer; Dynatech Laboratories).
Evaluation of Inhibitory Effect Against Anchorage-Independent Cell Growth of Human Non-Small Cell Lung Cancer Cell Line HCC827 Cells (Mutant EGFR (with Partial Deletion of Exon 19 in EGFR) Protein-Expressing Cells, American Type Culture Collection)
Evaluation was performed in the same manner as shown in Test Example 3.

88 types of kinases = assay: Kinase inhibition profiling, 88 types of kinases (Test Example 6); assay type: biochemical; conditions: concentration of 100 nM
[5] = test system: human non-small cell lung cancer cell line NCI-H2228 cells (EML4-ALK fusion protein-expressing cells); assay: Inhibitory effect against anchorage-independent cell growth of NCI-H2228 cells (Test Example 3); assay type: cell-based; conditions: 120 h, spheroid plate, 5 days, CellTiter-Glo
Source text: Measurement for anchorage-independent cell growth (colony method, etc) has been known to be a system for investigating the anticancer action (pharmacological effect) of test compounds (Clinical Oncology, second edition, Cancer and Chemotherapy Publishers Inc.). In place of the colony method, there is a following method using spheroid plates for measuring the growth of non-attached cells.
as §1

MUSK = target: T3, MUSK (Homo sapiens, UniProt O15146); assay: Kinase inhibition profiling, MUSK (Test Example 6); assay type: biochemical; design: purchased Carna Biosciences Inc., Japan (contract measurement); conditions: 100 nM; read-out: inhibitory activity against MUSK
T3 sequence (O15146 24-869): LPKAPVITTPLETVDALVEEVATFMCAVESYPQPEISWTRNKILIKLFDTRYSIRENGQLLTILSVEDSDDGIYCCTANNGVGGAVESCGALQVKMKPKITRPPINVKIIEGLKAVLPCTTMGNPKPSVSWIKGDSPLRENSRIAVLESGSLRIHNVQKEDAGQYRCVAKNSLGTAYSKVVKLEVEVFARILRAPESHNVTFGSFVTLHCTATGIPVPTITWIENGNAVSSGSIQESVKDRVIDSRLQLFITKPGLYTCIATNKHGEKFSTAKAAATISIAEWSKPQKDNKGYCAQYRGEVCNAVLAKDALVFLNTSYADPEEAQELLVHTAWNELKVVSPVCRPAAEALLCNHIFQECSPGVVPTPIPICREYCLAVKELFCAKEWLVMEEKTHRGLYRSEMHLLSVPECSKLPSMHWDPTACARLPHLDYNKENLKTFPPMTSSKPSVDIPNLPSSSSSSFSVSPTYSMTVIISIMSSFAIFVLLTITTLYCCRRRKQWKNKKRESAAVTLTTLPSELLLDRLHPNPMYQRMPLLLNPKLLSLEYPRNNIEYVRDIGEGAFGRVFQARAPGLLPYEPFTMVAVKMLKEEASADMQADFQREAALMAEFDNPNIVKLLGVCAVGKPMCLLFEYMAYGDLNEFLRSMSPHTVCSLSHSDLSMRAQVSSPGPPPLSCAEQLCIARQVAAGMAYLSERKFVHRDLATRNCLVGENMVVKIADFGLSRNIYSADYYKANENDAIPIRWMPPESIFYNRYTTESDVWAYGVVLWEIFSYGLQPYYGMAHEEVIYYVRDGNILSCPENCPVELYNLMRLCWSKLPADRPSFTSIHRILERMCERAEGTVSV

[6] = test system: HCC-827 cells (mutant EGFR protein-expressing cells); conditions: conditions of Non-patent Document 6; cited from earlier work
MNK1 = target: T4, MNK1 (Homo sapiens, UniProt Q9BUB5); assay: Kinase inhibition profiling, MNK1 (Test Example 6); assay type: biochemical; conditions: 100 nM; read-out: inhibitory activity against MNK1
T4 construct: purchased Carna Biosciences Inc., Japan (contract measurement)
T4 sequence (Q9BUB5 whole entry): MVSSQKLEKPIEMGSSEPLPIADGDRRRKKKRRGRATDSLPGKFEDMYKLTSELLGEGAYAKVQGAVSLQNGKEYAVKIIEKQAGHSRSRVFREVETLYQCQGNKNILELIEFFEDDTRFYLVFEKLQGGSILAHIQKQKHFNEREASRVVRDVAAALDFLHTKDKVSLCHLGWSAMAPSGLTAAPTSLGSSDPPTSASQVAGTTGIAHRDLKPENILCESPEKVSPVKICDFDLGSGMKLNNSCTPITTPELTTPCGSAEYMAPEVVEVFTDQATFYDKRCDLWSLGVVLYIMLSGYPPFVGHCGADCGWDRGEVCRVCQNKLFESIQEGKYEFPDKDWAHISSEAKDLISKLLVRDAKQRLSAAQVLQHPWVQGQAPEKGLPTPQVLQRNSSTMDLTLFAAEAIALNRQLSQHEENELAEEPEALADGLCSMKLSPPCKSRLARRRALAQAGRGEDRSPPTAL

T1 sequence (Q9UM73 with tags, fused parts or gaps I1461V/K1491R/D1529E): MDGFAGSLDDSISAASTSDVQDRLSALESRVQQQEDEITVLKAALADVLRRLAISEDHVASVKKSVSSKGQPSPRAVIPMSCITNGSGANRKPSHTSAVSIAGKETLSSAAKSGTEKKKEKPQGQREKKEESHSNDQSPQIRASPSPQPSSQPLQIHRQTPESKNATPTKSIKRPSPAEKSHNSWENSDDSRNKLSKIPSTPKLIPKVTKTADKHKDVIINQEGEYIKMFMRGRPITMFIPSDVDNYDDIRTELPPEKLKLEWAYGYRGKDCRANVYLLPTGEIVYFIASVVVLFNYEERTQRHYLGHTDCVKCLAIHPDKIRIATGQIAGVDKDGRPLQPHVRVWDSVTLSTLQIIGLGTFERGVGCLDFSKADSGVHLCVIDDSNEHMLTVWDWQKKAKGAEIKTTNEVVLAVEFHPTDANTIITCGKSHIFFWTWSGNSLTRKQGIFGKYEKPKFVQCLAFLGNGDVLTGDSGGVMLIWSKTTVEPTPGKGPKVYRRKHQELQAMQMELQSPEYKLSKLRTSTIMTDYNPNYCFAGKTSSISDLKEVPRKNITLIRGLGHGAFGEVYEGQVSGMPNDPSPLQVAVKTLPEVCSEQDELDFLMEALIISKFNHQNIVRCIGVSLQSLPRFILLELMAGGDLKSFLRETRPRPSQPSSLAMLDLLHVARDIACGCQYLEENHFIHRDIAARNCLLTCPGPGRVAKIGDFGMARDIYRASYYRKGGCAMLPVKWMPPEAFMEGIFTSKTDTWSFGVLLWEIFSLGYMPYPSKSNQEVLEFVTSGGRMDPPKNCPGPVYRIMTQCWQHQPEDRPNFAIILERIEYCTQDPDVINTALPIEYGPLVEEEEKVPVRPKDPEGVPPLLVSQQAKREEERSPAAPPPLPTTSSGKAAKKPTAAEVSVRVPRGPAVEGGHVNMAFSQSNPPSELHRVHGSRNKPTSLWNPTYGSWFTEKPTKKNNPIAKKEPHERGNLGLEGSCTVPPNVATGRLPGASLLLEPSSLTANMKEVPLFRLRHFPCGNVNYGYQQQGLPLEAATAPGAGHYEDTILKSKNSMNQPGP

## COc1cc(N2CCC(N3CCN(C)CC3)CC2)ccc1Nc1ncc(Cl)c(Nc2ccccc2S(=O)(=O)C(C)C)n1 [Compound C]
[1]; oral 10 mg/kg once a day for 14 days, started 7 days after inoculation
  inhibition of the growth of v1 expressing 3T3 cells (tumor): 103%

## CNS(=O)(=O)c1ccccc1Nc1nc(Nc2ccc(N3CCN(C)CC3)cc2OC)ncc1Br [Compound D, 2-[(5-bromo-2-{[2-methoxy-4-(4-methylpiperazin-1-yl)phenyl]amino}pyrimidin-4-yl)amino]-N-methylbenzenesulfonamide]
[1]; once a day for 10 days, started 6 days after inoculation
  inhibition of the growth of v1 expressing 3T3 cells (tumor): 101%
[2]
  inhibition at 0.01 µM: 99%

## COc1cc(N2CCC(N3CCN(C)CC3)CC2)ccc1Nc1ncc(Cl)c(Nc2ccccc2S(=O)(=O)C(C)C)n1 [TAE684, 5-chloro-N^4-[2-(isopropylsulfonyl)phenyl]-N^2-{2-methoxy-4-[4-(4-methylpiperazin-1-yl)piperidin-1-yl]phenyl}pyrimidine-2,4-diamine, reference compound]
MER
  inhibition at 0.1 µM: ≥ 90%
[3]; female SD rats (2 rats)
  Dose: Bone marrow inhibition: 10 mg/kg
  Dose: Exacerbation of common symptoms: 30 mg/kg
  Non-toxic dose: 3 mg/kg
[3]; female
  Dose: Moribund condition: 100 mg/kg
[3]; male SD rats (4 rats)
  Dose: Bone marrow inhibition: 10 mg/kg
  Dose: Exacerbation of common symptoms: 100 mg/kg
  Non-toxic dose: 3 mg/kg
[3]; male
  Dose: Moribund condition: (>100) mg/kg
[4]
  IC50: 301 nM
88 types of kinases
  number of types of kinases (of 88) with 50% or more inhibitory activity: 29 types of kinases
[5]
  IC50: 8.5 nM
MUSK
  inhibition at 0.1 µM: ≥ 90%
[6]
  growth inhibitory activity, inhibition rate: 7.5%
MNK1
  inhibition at 0.1 µM: 4.8%
